# According to publication PMC10743905, “Design, Synthesis, and In Vitro and In Vivo Bioactivity Studies of Hydrazide–Hydrazones of 2,4-Dihydroxybenzoic Acid” (International Journal of Molecular Sciences, 2023):
# Tested on: Candida albicans ATCC 10231
# Experiment: Broth microdilution MIC/MFC
# Assay type: cell-based
# Conditions: ATCC10231, read-out: MIC
# Description: (§1) In vitro antimicrobial activity assays - Methodology
# (§2) The examined compounds 1 - 24 were screened in vitro for antibacterial and antifungal activities using the broth microdilution method according to procedure reported earlier by our research group and European Committee on Antimicrobial Susceptibility Testing (EUCAST) and Clinical and Laboratory Standards Institute (CLSI) guidelines against a panel of reference and clinical or saprophytic strains of microorganisms, in-cluding Gram-positive bacteria, Staphylococcus aureus ATCC 43300 (Methicillin Resistant S. aureus – MRSA), Staphylococcus aureus ATCC 29213 (Methicillin Susceptible S. aureus – MSSA), Staphylococcus epidermidis ATCC 12228, Enterococcus faecalis ATCC 29212, Micro-coccus luteus ATCC 10240, Bacillus subtilis ATCC 6633 and Bacillus cereus ATCC 10876), Gram-negative bacteria (Bordetella bronchiseptica ATCC 4617, Escherichia coli ATCC 25922, Klebsiella pneumoniae ATCC 13883, Proteus mirabilis ATCC 12453, Salmonella typhimurium ATCC 14028 and Pseudomonas aeruginosa ATCC 9027) and fungi belonging to yeasts (Can-dida albicans ATCC 10231, Candida albicans ATCC 2091, Candida parapsilosis ATCC 22019, Candida glabrata ATCC 90030 and Candida krusei ATCC 14243). The microorganisms be-longing to ATCC came from American Type Culture Collection, routinely used for the evaluation of antimicrobials. All the used microbial cultures were first subcultured on nu-trient agar or Sabouraud agar at 35°C for 18-24 h or 30°C for 24-48 h for bacteria and fungi, […]
# The surface of Mueller-Hinton agar (for bacteria) and RPMI 1640 with MOPS (for fungi) were inoculated with the suspensions of bacterial or fungal species. Microbial suspensions were prepared in sterile saline with an optical density of McFarland standard scale 0.5.
# Samples containing examined compounds were dissolved in dimethyl sulfoxide (DMSO).
# Furthermore, bacterial and fungal suspensions were put onto Petri dishes with solid me-dia containing 2 mg/mL of the tested compounds followed incubation at 37°C for 24h and 30°C for 48h for bacteria and fungi, respectively. The inhibition of microbial growth was judged by comparison with a control culture prepared without any sample tested. Ciprof-loxacin, vancomycin, nitrofurantoin, cefuroxime, ampicillin or nystatin (Sigma) were used as a reference antibacterial or antifungal compounds, respectively.
# (§3) Subsequently, the MIC (Minimal Inhibitory Concentration) of the compounds was ex-amined by the microdilution broth method, using their two-fold dilutions in Mueller- […]
# (§4) Hinton broth or (for bacteria) and RPMI 1640 broth with MOPS (for fungi) prepared in 96-well polystyrene plates. Final concentrations of the compounds ranged from 1000 to 0.488 µg/ml. Microbial suspensions were prepared in 0.85% NaCl with an optical density of 0.5 McFarland standard. Next each bacterial or fungal suspension was added per each well containing broth and various concentrations of the examined compounds. After incuba-
row,MIC [µg/mL],Structure (SMILES)
1,> 1000,"COc1ccc(/C=N/NC(=O)c2ccc(O)cc2O)cc1Cl [Compound 9, N-[(3-chloro-4-methoxyphenyl)methylidene]-2,4-dihydroxybenzohydrazide]"

# Tested on: not given
# Experiment: not given
# Conditions: not given
row,melting point [°C],Structure (SMILES)
1,256,"COc1ccc(/C=N/NC(=O)c2ccc(O)cc2O)cc1Cl [Compound 9, N-[(3-chloro-4-methoxyphenyl)methylidene]-2,4-dihydroxybenzohydrazide]"

# Tested on: Staphylococcus aureus ATCC 29213
# Experiment: Broth microdilution MIC/MBC
# Assay type: cell-based
# Conditions: not given
# Description: as §1
# as §2, with “antimicrobials.” for “antimicrobials. All the used microbial cultures were first subcultured on nu-trient agar or Sabouraud agar at 35°C for 18-24 h or 30°C for 24-48 h for bacteria and fungi,”
# (§5) Samples containing examined compounds were dissolved in dimethyl sulfoxide (DMSO). […]
# as §3, §4
row,MBC/MIC,Structure (SMILES)
1,1,"COc1ccc(/C=N/NC(=O)c2ccc(O)cc2O)cc1Cl [Compound 9, N-[(3-chloro-4-methoxyphenyl)methylidene]-2,4-dihydroxybenzohydrazide]"

# Same assay, conditions: ATCC29213
MIC [µg/mL],Structure (SMILES),MBC [µg/mL]
31.2,"COc1ccc(/C=N/NC(=O)c2ccc(O)cc2O)cc1Cl [Compound 9, N-[(3-chloro-4-methoxyphenyl)methylidene]-2,4-dihydroxybenzohydrazide]",31.2

# Tested on: Micrococcus luteus ATCC 10240
# Experiment: Broth microdilution MIC/MBC
# Assay type: cell-based
# Conditions: not given
# Description: as §1
# as §2, with “antimicrobials.” for “antimicrobials. All the used microbial cultures were first subcultured on nu-trient agar or Sabouraud agar at 35°C for 18-24 h or 30°C for 24-48 h for bacteria and fungi,”
# as §5, §3, §4
row,MBC/MIC,Structure (SMILES)
1,4,"COc1ccc(/C=N/NC(=O)c2ccc(O)cc2O)cc1Cl [Compound 9, N-[(3-chloro-4-methoxyphenyl)methylidene]-2,4-dihydroxybenzohydrazide]"

# Same assay, conditions: ATCC10240
row,Structure (SMILES),MBC [µg/mL]
1,"COc1ccc(/C=N/NC(=O)c2ccc(O)cc2O)cc1Cl [Compound 9, N-[(3-chloro-4-methoxyphenyl)methylidene]-2,4-dihydroxybenzohydrazide]",500

# Same assay, conditions: ATCC10240, read-out: MIC
row,MIC [µg/mL],Structure (SMILES)
1,125,"COc1ccc(/C=N/NC(=O)c2ccc(O)cc2O)cc1Cl [Compound 9, N-[(3-chloro-4-methoxyphenyl)methylidene]-2,4-dihydroxybenzohydrazide]"

# Tested on: Staphylococcus epidermidis ATCC 12228
# Experiment: Broth microdilution MIC/MBC
# Assay type: cell-based
# Conditions: not given
# Description: as §1
# as §2, with “antimicrobials.” for “antimicrobials. All the used microbial cultures were first subcultured on nu-trient agar or Sabouraud agar at 35°C for 18-24 h or 30°C for 24-48 h for bacteria and fungi,”
# as §5, §3, §4
row,MBC/MIC,Structure (SMILES)
1,2,"COc1ccc(/C=N/NC(=O)c2ccc(O)cc2O)cc1Cl [Compound 9, N-[(3-chloro-4-methoxyphenyl)methylidene]-2,4-dihydroxybenzohydrazide]"

# Same assay, conditions: ATCC12228
row,Structure (SMILES),MBC [µg/mL]
1,"COc1ccc(/C=N/NC(=O)c2ccc(O)cc2O)cc1Cl [Compound 9, N-[(3-chloro-4-methoxyphenyl)methylidene]-2,4-dihydroxybenzohydrazide]",125

# Same assay, conditions: ATCC12228, read-out: MIC
row,MIC [µg/mL],Structure (SMILES)
1,62.5,"COc1ccc(/C=N/NC(=O)c2ccc(O)cc2O)cc1Cl [Compound 9, N-[(3-chloro-4-methoxyphenyl)methylidene]-2,4-dihydroxybenzohydrazide]"

# Tested on: Proteus mirabilis ATCC 12453
# Experiment: Broth microdilution MIC/MBC
# Assay type: cell-based
# Conditions: ATCC12453
# Description: as §1
# as §2, with “antimicrobials.” for “antimicrobials. All the used microbial cultures were first subcultured on nu-trient agar or Sabouraud agar at 35°C for 18-24 h or 30°C for 24-48 h for bacteria and fungi,”
# as §5, §3, §4
row,MIC [µg/mL],Structure (SMILES)
1,> 1000,"COc1ccc(/C=N/NC(=O)c2ccc(O)cc2O)cc1Cl [Compound 9, N-[(3-chloro-4-methoxyphenyl)methylidene]-2,4-dihydroxybenzohydrazide]"

# Tested on: Staphylococcus aureus ATCC 43300
# Experiment: Broth microdilution MIC/MBC
# Assay type: cell-based
# Conditions: Staphylococcus aureus ATCC 43300 (MRSA)
# Description: as §1
# as §2, with “antimicrobials.” for “antimicrobials. All the used microbial cultures were first subcultured on nu-trient agar or Sabouraud agar at 35°C for 18-24 h or 30°C for 24-48 h for bacteria and fungi,”
# as §5, §3, §4
MBC/MIC,MIC [µg/mL],Structure (SMILES),MBC [µg/mL]
4,15.6,"COc1ccc(/C=N/NC(=O)c2ccc(O)cc2O)cc1Cl [Compound 9, N-[(3-chloro-4-methoxyphenyl)methylidene]-2,4-dihydroxybenzohydrazide]",62.5

# Tested on: Salmonella typhimurium ATCC 14028
# Experiment: Broth microdilution MIC/MBC
# Assay type: cell-based
# Conditions: Salmonella enterica
# Description: as §1
# as §2, with “antimicrobials.” for “antimicrobials. All the used microbial cultures were first subcultured on nu-trient agar or Sabouraud agar at 35°C for 18-24 h or 30°C for 24-48 h for bacteria and fungi,”
# as §5, §3, §4
row,MIC [µg/mL],Structure (SMILES)
1,> 1000,"COc1ccc(/C=N/NC(=O)c2ccc(O)cc2O)cc1Cl [Compound 9, N-[(3-chloro-4-methoxyphenyl)methylidene]-2,4-dihydroxybenzohydrazide]"

# Tested on: Pseudomonas aeruginosa ATCC 9027
# Experiment: Broth microdilution MIC/MBC
# Assay type: cell-based
# Conditions: ATCC9027
# Description: as §1
# as §2, with “antimicrobials.” for “antimicrobials. All the used microbial cultures were first subcultured on nu-trient agar or Sabouraud agar at 35°C for 18-24 h or 30°C for 24-48 h for bacteria and fungi,”
# as §5, §3, §4
row,MIC [µg/mL],Structure (SMILES)
1,> 1000,"COc1ccc(/C=N/NC(=O)c2ccc(O)cc2O)cc1Cl [Compound 9, N-[(3-chloro-4-methoxyphenyl)methylidene]-2,4-dihydroxybenzohydrazide]"
